Measured values from BindingDB's records for doi:10.1016/j.bmcl.2015.11.098 (Janssen Pharmaceutica, 2016).

Molecular target: Metabotropic glutamate receptor 5 (Homo sapiens, UniProt P41594)
Assay: Positive allosteric modulation of human mGlu5 expressed in HEK293 cells assessed as glutamate-induced calcium mobilization

Sequence of Metabotropic glutamate receptor 5 (P41594 whole entry): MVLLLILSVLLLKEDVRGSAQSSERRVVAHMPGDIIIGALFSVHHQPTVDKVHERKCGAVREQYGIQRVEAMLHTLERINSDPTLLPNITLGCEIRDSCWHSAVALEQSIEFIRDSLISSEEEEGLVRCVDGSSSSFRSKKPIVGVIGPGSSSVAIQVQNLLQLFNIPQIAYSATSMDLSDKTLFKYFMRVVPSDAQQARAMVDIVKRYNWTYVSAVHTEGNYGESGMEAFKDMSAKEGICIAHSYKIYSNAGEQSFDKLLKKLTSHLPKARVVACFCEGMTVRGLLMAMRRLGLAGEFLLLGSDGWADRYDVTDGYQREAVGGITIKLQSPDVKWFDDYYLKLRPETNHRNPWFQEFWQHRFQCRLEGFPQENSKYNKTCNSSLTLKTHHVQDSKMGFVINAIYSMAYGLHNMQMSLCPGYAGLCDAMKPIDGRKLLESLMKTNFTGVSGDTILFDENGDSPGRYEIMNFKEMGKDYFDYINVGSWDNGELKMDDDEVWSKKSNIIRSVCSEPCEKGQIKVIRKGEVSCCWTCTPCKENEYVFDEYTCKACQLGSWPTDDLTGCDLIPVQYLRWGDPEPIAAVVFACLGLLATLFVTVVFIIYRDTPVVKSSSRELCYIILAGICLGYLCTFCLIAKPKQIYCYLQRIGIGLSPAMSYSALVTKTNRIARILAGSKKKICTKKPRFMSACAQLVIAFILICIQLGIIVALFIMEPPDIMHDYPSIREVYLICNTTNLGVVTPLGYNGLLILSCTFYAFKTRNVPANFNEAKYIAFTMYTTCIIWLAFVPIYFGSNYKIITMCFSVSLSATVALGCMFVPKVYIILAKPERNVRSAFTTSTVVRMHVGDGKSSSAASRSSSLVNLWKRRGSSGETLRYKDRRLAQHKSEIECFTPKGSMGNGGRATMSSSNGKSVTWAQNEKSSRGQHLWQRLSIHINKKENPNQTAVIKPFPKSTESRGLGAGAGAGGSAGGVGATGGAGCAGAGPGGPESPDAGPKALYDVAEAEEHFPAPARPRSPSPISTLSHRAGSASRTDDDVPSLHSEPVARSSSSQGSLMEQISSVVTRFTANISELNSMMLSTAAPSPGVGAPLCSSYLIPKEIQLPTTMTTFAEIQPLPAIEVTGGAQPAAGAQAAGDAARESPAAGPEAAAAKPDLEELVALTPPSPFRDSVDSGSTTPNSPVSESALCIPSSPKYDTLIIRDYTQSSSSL

EC50: 2810 nM
SMILES: O=C1c2nc(COc3ccccc3)nn2CCN1c1ccc(F)cc1
